{"source": "patent US8604198B2", "about": "“Salt of proline derivative, solvate thereof, and production method thereof” (Mitsubishi Tanabe Pharma Corporation, priority 2005, dated 2013)", "format_in_all_cases": "physicochemical", "key": {"[1]": {"test": "Measurement of solubility at pH 9-13 (HPLC)", "procedure": "Using 0.2 mol/L NaOH/0.1 mol/L NaCl mixed solution as a test solution, the solubility of the title compound of Example 3 having a pH of 9-13 at room temperature was analyzed by liquid chromatography (HPLC) (n=3). […] From the foregoing, the solubility of the title compound of Example 3 was concluded to be about 7 mg/mL."}, "[2]": {"test": "Measurement of hygroscopicity (moisture adsorption measurement)", "details": "25° C., reduced pressure type moisture adsorption measurement apparatus", "procedure": "The hygroscopicity of the title compound of Example 3 was measured under the following conditions using a moisture adsorption measurement apparatus. • apparatus: MB-300G manufactured by VTI • measurement temperature: 25° C. • measurement range: 0-95% RH\nThe title compound of Example 3 was subjected to a moisture adsorption measurement using a reduced pressure type moisture adsorption measurement apparatus."}, "[3]": {"test": "Measurement of solubility in water (visual observation)", "details": "37° C., shaken 1 hr", "procedure": "As a measurement method, visual observation was used, which permits convenient evaluation of rough solubility with a small amount of sample. The temperature during measurement was 37° C. About 3 mg of the title compound of Example 3 was taken in a sample bottle with a screw cap, a test solution (0.15 mL) was added and the cap was screwed tightly thereon. The sample was ultrasonicated for 1 min to give a dispersion, which was placed in a shaking-type thermostat water bath stabilized at 37° C. and shaken for 1 hr. Then, dissolution was confirmed by visual observation."}}}
{"smiles": "Br.Br.Br.Br.Br.Cc1cc(N2CCN([C@@H]3CN[C@H](C(=O)N4CCSC4)C3)CC2)n(-c2ccccc2)n1.Cc1cc(N2CCN([C@@H]3CN[C@H](C(=O)N4CCSC4)C3)CC2)n(-c2ccccc2)n1", "note": "[Example 3, 3-{(2S,4S)-4-[4-(3-methyl-1-phenyl-1H-pyrazol-5-yl)piperazin-1-yl]pyrrolidin-2-ylcarbonyl}thiazolidine 2.5 hydrobromide]", "values": [{"measurement": "Solubility", "setting": "[1]; pH 8.81, 25° C.", "result": 8400, "unit": "µg/mL"}, {"measurement": "solubility (concluded)", "setting": "[1]; pH 9-13, room temperature, conclusion from the measured range", "result": "about 7 mg/mL"}, {"measurement": "Solubility", "setting": "[1]; pH 11.94, 25° C.", "result": 7200, "unit": "µg/mL"}, {"measurement": "Solubility", "setting": "[1]; pH 11.98, 25° C.", "result": 7900, "unit": "µg/mL"}, {"measurement": "Solubility", "setting": "[1]; pH 12.10, 25° C.", "result": 7200, "unit": "µg/mL"}, {"measurement": "Solubility", "setting": "[1]; pH 12.26, 25° C.", "result": 7800, "unit": "µg/mL"}, {"measurement": "Solubility", "setting": "[1]; pH 12.70, 25° C.", "result": 6400, "unit": "µg/mL"}, {"measurement": "Solubility", "setting": "[1]; pH 12.99, 25° C.", "result": 6800, "unit": "µg/mL"}, {"measurement": "state of water content", "setting": "[2]; 0% RH", "result": "almost completely dry"}, {"measurement": "water maintained, corresponding to hydrate", "setting": "[2]; 50% RH", "result": 1.8, "unit": "hydrate"}, {"measurement": "solubility in water", "setting": "[3]", "result": "not less than 20 mg/mL"}]}
